SMILES strings stand for the structures.

The target of the assay is CCK2 receptor (Cavia porcellus, UniProt H0VZC5). The assay can be described thus: Guinea-pig gastric corpeal muscle assay (pentagastrin-induced contraction). The note with it: isolated guinea-pig gastric corpeal muscle strips, pentagastrin concentration-response curves, CCK1 receptors blocked. As for the experimental part:
Guinea-Pig Gastric Corpeal Muscle Assay
CCK2 receptor-mediated muscle contraction was measured in an isolated muscle-strip assay of guinea-pig gastric corpeal muscle according to the methods described by Roberts et al. (S. P. Roberts, E. A. Harper, G. F. Watt, V. P. Gerskowitch, R. A. Hull, N. P. Shankley, and J. W. Black, Br. J. Pharmacol., 1996, 118(7):1779-1789). In brief, strips of muscle were dissected and suspended in isolated tissue organ baths for isotonic muscle contraction recording. The baths, containing Krebs-Henseleit solution, were maintained at […]. and gassed continuously with 95% O2 and 5% CO2. CCK1 receptors known to be present in this assay were blocked using a selective concentration of a suitable CCK1 receptor antagonist (e.g. 2-NAP). The effectiveness of the test compounds was assessed by measuring their effect on contractile concentration-response curves obtained using a well-characterized surrogate for the hormone gastrin (pentagastrin). […]

Sequence of CCK2 receptor (H0VZC5 entry or part of it): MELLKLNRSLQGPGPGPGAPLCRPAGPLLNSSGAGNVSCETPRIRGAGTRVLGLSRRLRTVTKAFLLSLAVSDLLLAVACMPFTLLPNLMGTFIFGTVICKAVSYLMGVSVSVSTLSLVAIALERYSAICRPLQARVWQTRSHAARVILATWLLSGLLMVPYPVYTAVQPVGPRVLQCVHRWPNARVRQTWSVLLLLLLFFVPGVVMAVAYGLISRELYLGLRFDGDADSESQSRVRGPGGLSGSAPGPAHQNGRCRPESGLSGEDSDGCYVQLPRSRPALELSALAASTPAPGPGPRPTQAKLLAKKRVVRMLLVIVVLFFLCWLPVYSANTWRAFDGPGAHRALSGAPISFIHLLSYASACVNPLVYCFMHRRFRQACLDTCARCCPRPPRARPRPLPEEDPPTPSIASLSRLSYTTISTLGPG

As for `C[C@@H](NC(=O)c1ccc(Br)cc1NS(=O)(=O)c1cccc2nccnc12)c1ccc(F)cc1F` [Example 2, (R)-4-Bromo-N-[1-(2,4-difluoro-phenyl)-ethyl]-2-(quinoxaline-5-sulfonylamino)-benzamide], the “behaviour in the assay (mode of antagonism)” value is reported as “competitive antagonist”.

The values are drawn from patent publication US7947833B2, “Preparation of quinoxaline compounds” (Janssen Pharmaceutica NV, priority 2004, dated 2011).
